From publication PMC11656837, “pH-Responsive Peptide Nanoparticles Deliver Macromolecules to Cells via Endosomal Membrane Nanoporation” (ACS Nano, 2024)
Where no end group is shown, it is not given here.

Columns and labels:
[1] = system: HeLa cells; settings: HeLa, 48 h
Description: For this, we use PE-III, the third domain of the Pseudomonas exotoxin. This 25 kDa enzyme ADP ribosylates ribosomal elongation factor 2, thereby blocking protein synthesis and triggering apoptosis. […] Thus, apoptosis will occur only if an exogenous agent, such as a peptide, enables cytosolic delivery of the 4 × 3 nm PE-III protein, Figure 2A.
Comparison of peptide concentration midpoints requires a constant concentration of PE-III in each experiment. […] The major disadvantage of the PE-III assay to detect delivery is that only a few molecules of active PE-III delivered to the cytosol[36] will produce a positive result. To partly mitigate this effect in the assays described below, we use a constant 40 nM PE-III. At such a low concentration, each endosome will contain an average of fewer than one PE-III molecule if we assume passive entrapment of the cargo (see the Supporting Information).
The no treatment (no tx) control group contained cells but no peptide or PE-III enzyme. The Alamar Blue intensity of this group was defined as 100% viability. Media alone without cells was defined as 0% viability.
The concentration range used for each peptide was adjusted according to preliminary measurements of activity in this assay. We assessed PE-III delivery by measuring cell viability using Alamar Blue.
Fifteen thousand HeLa cells were seeded in a clear bottom, black-walled 96-well plate overnight at 37 °C with 5% CO2 in complete media (DMEM + phenol red +10% FBS + antimycotic/antibiotic + nonessential amino acids). Cells were then washed once in PBS and treated with PE-III and peptide in serum-free media without phenol red, with a 50 μL total volume. After a 2-day incubation with treatment, 50 μL of 10% Alamar blue reagent diluted in serum-free media was added directly to each well (5% Alamar blue final) and incubated for 1.5 h at 37 °C. The plate was then read at 550 equiv/590 em on a Biotek plate reader. Untreated cells were used as a negative control, and MelP5-treated cells served as a positive control.

[2] = system: HeLa cells; assay: Direct cytotoxicity without PE-III cargo (Alamar Blue); assay type: cell-based, human; settings: 200 μM peptide, no PE-III, 48 h
Description: The no treatment (no tx) control group contained cells but no peptide or PE-III enzyme. The Alamar Blue intensity of this group was defined as 100% viability. Media alone without cells was defined as 0% viability. […] When 200 μM D-pHD108 and 40 nM PE-III were added together, essentially 100% loss of cell viability was observed, showing that PE-III was effectively delivered to the cytosol by the pHD peptide. […] This observation provides strong support for the hypothesis that PE-III delivery occurs via endocytosis and that it is dependent on endosomal acidification because the L-amino acid peptide, but not the D-amino acid peptide, is susceptible to acidification-dependent proteolytic degradation which occurs in endosomal compartments.
We tested for direct toxicity of the acylated pHD peptides by incubating the same concentrations of acylated pHD peptide variants with cells in the absence of PE-III. […] Thus, all of the apoptosis observed in the PE-III delivery assays was due to the cytosolic delivery of intact PE-III and not to the direct action of the acylated pHD peptide.

[3] = system: RAW macrophages; settings: read-out: EC50 (peptide concentration midpoint for PE-III delivery), PE-III constant, 48 h, Alamar Blue

Row | Molecule | loss of cell viability ([1]; 200 μM peptide + 40 nM PE-III, 37 °C, Alamar Blue) | effect on cell viability, peptide alone [2] | EC50 [3] | PE-III delivery/apoptosis ([1]; same concentration range as unmodified pHD108, 40 nM PE-III)
1 | CC[C@@H](C)[C@@H](NC(=O)CN)C(=O)NCC(=O)N[C@H](CCC(=O)O)C(=O)N[C@@H](C(=O)N[C@H](CC(C)C)C(=O)N[C@H](Cc1c[nH]cn1)C(=O)N[C@H](CCC(=O)O)C(=O)N[C@H](CC(C)C)C(=O)N[C@H](C)C(=O)N[C@H](CCC(=O)O)C(=O)NCC(=O)N[C@H](CC(C)C)C(=O)N1CCC[C@@H]1C(=O)N[C@H](CCC(=O)O)C(=O)N[C@H](CC(C)C)C(=O)N[C@H](CCC(N)=O)C(=O)N[C@H](CCC(=O)O)C(=O)N[C@H](Cc1c[nH]c2ccccc12)C(=O)N[C@@H](C(=O)N[C@H](Cc1c[nH]cn1)C(=O)N[C@H](C)C(=O)N[C@H](C)C(=O)N[C@H](CCC(N)=O)C(=O)N[C@H](CCC(N)=O)C(=O)N[C@H](CC(C)C)C(N)=O)[C@H](C)CC)C(C)C [D-pHD108] | ~100% | no effect on cell viability | 75 µM | 
2 | PLGRPQLRRGQF-NH2 [ONEG, reference compound] |  |  |  | no measurable PE-III delivery/apoptosis
